Experimental data taken from PubChem BioAssay AID2060486 (Molecular Pharmacology Branch, DTP, NCI, 2025).
pIC50: −log10 of the molar value. Several values for one entry are separate records, joined by “and”; a condition that tells them apart may be missing. Identical values can stand only once.

Tested on: IGROV1 complex spheroids (HUVEC, MSC), viability % test/control
Test: Anticancer human tumor IGROV1 cell line growth inhibition [GQUAD];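 note: spheroids exposed to compounds for 7 days before readout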
Conditions: for viability, T/C: stronger effect = lower value; for pIC50: curve of compound; for IC50: compound alone
Text: DNA G-quadruplex Stabilizer Agents in Combinations in Complex Spheroids
A high-throughput screen of multi-cell type tumor spheroids was designed to identify active combinations of DNA G-quadruplex stabilizer agents and targeted small molecules. Complex spheroids include a stromal component modeled by human endothelial cells (HUVEC) and fibroblasts modeled by human mesenchymal stem cells (MSCs). The concentration ranges selected for each drug and investigational agent were based upon clinically achievable concentrations if the clinical Cmax of the agent was known.
Compounds. The drugs and investigational agents: pidnarulex (CX-5461; NSC782164), APTO-253 (NSC789042), BRACO-19 (NSC847499), peposertib (NSC802822), ceralasertib (NSC780249), elimusertib (NSC800525), camonsertib (NSC841442), AZD-1390 (NSC803789), olaparib (NSC753686), talazoparib (NSC767125), ART-558 (NSC835418), sotorasib (NSC818433), MRTX-1133 (NSC836407), SN-38 (NSC673596), topotecan (NSC609699), etoposide (NSC141540), doxorubicin (NSC123127), gemcitabine (NSC613327), 5-fluorouracil (NSC19893), paclitaxel (NSC125973), vemurafenib (NSC761431), panobinostat (NSC761190), R-306465 (JNJ-16241199; NSC773264), adavosertib (NSC754352), TP-3654 (NSC805149), carboplatin (NSC241240), KSQ-4279 (NSC840948), and staurosporine (NSC755774) were obtained from the National Cancer Institute (NCI) Developmental Therapeutics Program Chemical Repository (34). The FDA-approved anticancer drug set is available from the NCI Developmental Therapeutics Program. […] The stock solutions were prepared in dimethyl sulfoxide (DMSO, Sigma-Aldrich, St. Louis, MO, cat. D2650) at 800-fold the tested concentration and stored at -70 degrees C prior to their use. All drugs and investigational agents were tested over a range starting from a high concentration at or near the clinical Cmax and decreasing in half-log increments. If the clinical Cmax for an agent had not been determined, the highest concentration tested was 10 microM.
2.3 Cell Culture. All cells were maintained in an incubator at 37 degrees C and 5% CO2 with 95% humidity. The PDC lines were cultured according to standard operating procedures established by the NCI PDMR. All PDCs were thawed and cultured in Matrigel-coated flasks prepared with a working solution of 1X Ham's F-12 nutrient mix, without supplementation (Invitrogen, cat. 11765054), 100 U/mL penicillin-streptomycin (Invitrogen, cat. 15140122), and 2.5% Matrigel (Corning Inc., cat. 354248) for the first three passages. The 857933-349-R-J2-PDC line was cultured in 6C/Colon 1B media, which includes advanced DMEM/F-12 (Thermo Fisher Scientific, cat. 12634028), 10 mM HEPES (Thermo Fisher Scientific, cat. 15630080), 1X GlutaMAX supplement (Thermo Fisher Scientific, cat. 35050061), 0.1 mg/mL primocin (InvivoGen, cat. ant-pm-2), 10% defined fetal bovine serum, heat inactivated (HyClone Laboratories Inc., cat. SH30070.03HI), 50% L-WRN conditioned media (ATCC, cat. CRL-3276), 1.25 mM N-Acetyl-L-cysteine (Sigma-Aldrich, cat. A9165), 10 mM nicotinamide (Sigma-Aldrich, cat. N0636), 1X B-27 supplement (Thermo Fisher Scientific, cat. 17504044), 1X N-2 supplement (Thermo Fisher Scientific, cat. 17502048), 10 microM Y-27632 dihydrochloride (Tocris Bioscience, cat. 1254), and 50 ng/mL human EGF recombinant protein (Thermo Fisher Scientific, cat. PHG0311). The 485176-168-R4-J1-PDC line was cultured in Panc media, which includes all 6C/Colon 1B media components plus 100 ng/mL human FGF-10 (Thermo Fisher Scientific, cat. 100-26), 500 nM SB-431542 (Selleckchem, cat. S1067), and gastrin (Tocris, cat. 3006).
[…]

Structure (SMILES)	viability, T/C (compound 0.0316 µM)	viability, T/C (compound 0.1 µM)	viability, T/C (compound 0.316 µM)	viability, T/C (compound 1 µM)	viability, T/C (compound 3.16 µM)	viability, T/C (compound 10 µM)	pIC50	IC50 (run of 03/18/2024)	IC50 (run of 03/26/2024)	viability, T/C (compound 0.000999 µM)	viability, T/C (compound 0.00316 µM)	viability, T/C (compound 0.00999 µM)	viability, T/C (compound 0.0999 µM)
COc1cc(C2c3cc4c(cc3C(OC3OC5COC(C)OC5C(O)C3O)C3COC(=O)C23)OCO4)cc(OC)c1O (stereo not given)	87.7% and 74.7% and 87.1%	50.5% and 54.1% and 56.5%	23.5% and 21.2% and 26.5%	14% and 12.6% and 12.7%	10.9% and 11.7% and 9.02%	5.01% and 6.17% and 5.68%	7.00 and 6.94 and 6.89	–	–	–	–	–	–
COc1ccc([C@@H](O)c2cc(-c3ncnc4cc(N5CCOCC5)ccc34)c(F)cc2Cl)nn1	98.6% and 95.7% and 99.4%	88.4% and 81.6% and 65.6%	91.1% and 92.8% and 94.7%	50.6% and 64.3% and 60.5%	20.1% and 18% and 17.6%	6.24% and 5.2% and 5.02%	5.96 and 5.84 and 5.87	–	–	–	–	–	–
COc1cccc2c1C(=O)c1c(O)c3c(c(O)c1C2=O)CC(O)(C(=O)CO)CC3OC1CC(N)C(O)C(C)O1 (stereo not given)	67.5% and 64.3% and 55.3%	16.6% and 19.5% and 22.7%	8.67% and 8.83% and 8.72%	3.86% and 4.47% and 4.45%	0.12% and 0.15% and 0.11%	0.59% and 1.33% and 0.9%	7.33 and 7.34 and 7.42	–	–	–	–	–	–
COc1ncnc(C2CC2)c1-c1ncc2cnn(Cc3ccc(-c4nc(C(F)(F)F)cn4C(C)C)cc3)c2n1	99.3% and 85% and 100%	82.7% and 93.3% and 87%	94.9% and 98.1% and 93%	90.1% and 91.9% and 96.5%	78.2% and 69.5% and 96.9%	94.5% and 82.1% and 77.6%	< 5.00	–	–	–	–	–	–
Cc1[nH]c2ccc(F)cc2c1-c1nc2c3cccnc3c3ncccc3c2[nH]1	–	101% [middle of 12 runs]	–	4.97% [middle of 12 runs]	4.72% [middle of 12 runs]	4.29% [middle of 12 runs]	–	561 nM [middle of 8 runs]	531 nM [middle of 4 runs]	–	–	–	–
Cc1[nH]c2ccccc2c1CCNCc1ccc(/C=C/C(=O)NO)cc1	34.2% and 33.4% and 38.3%	–	0.26% (2×) and 0.27%	–	–	–	7.66 and 7.69 and 7.63	–	–	108% and 102% and 86.4%	89.8% and 85.8% and 90.5%	83.8% and 79.4% and 81.5%	4.41% and 3.52% and 3.65%
Cc1cccc(N(C)C(=O)C2C(O)CCN2c2nc(C)cc(C(F)(F)F)c2C#N)c1 (stereo not given)	85.7% and 108% and 109%	86.3% and 92.3% and 87.3%	100% (2×) and 103%	87.2% and 85.6% and 91%	89.7% and 99.7% and 89%	88.3% and 93.8% and 78%	< 5.00	–	–	–	–	–	–
Cc1cnc(CNC(=O)c2c(=O)c3ccc(N4CCCN(C)CC4)nc3n3c2sc2ccccc23)cn1	71.2% [middle of 12 runs]	40.9% [middle of 12 runs]	27% [middle of 12 runs]	16.7% [middle of 12 runs]	11.6% [middle of 12 runs]	11.3% [middle of 12 runs]	–	68.4 nM [middle of 11 runs]	–	–	–	–	–
Cn1ncnc1[C@H]1c2n[nH]c(=O)c3cc(F)cc(c23)N[C@@H]1c1ccc(F)cc1	70% and 67.1% and 66.2%	–	36.7% and 29.4% and 34.7%	–	–	–	6.89 and 6.96 and 7.11	–	–	97.2% and 105% and 82.2%	92.2% and 77% and 90.2%	76.3% and 86.3% and 86.2%	53.7% and 55% and 46.8%
Nc1ccn(C2OC(CO)C(O)C2(F)F)c(=O)n1 (stereo not given)	12.1% and 11.8% and 8.43%	5.96% and 5.24% and 5.38%	5.74% and 5.8% and 4.72%	6.33% and 6.36% and 4.79%	6.11% and 5.6% and 4.26%	5.62% and 5.26% and 4.2%	> 7.50	–	–	–	–	–	–
O=C(NO)c1cnc(N2CCN(S(=O)(=O)c3ccc4ccccc4c3)CC2)nc1	65% and 73.3% and 81.7%	24% and 32.4% and 40.8%	4.46% and 3.52% and 3.88%	0.24% and 0.3% and 0.34%	0.04% (2×) and 0.15%	0.06% and 0.13% and 0.05%	7.32 and 7.21 and 7.11	–	–	–	–	–	–
O=C(c1cc(Cc2n[nH]c(=O)c3ccccc23)ccc1F)N1CCN(C(=O)C2CC2)CC1	87.6% and 92% and 100%	91.8% and 91.9% and 84.2%	93.4% and 85.7% and 102%	77.6% and 81.8% and 83.7%	63.9% and 52.6% and 40%	26.5% and 25.6% and 20.9%	5.32 and 5.45 and 5.61	–	–	–	–	–	–
O=c1[nH]cc(F)c(=O)[nH]1	109% and 96.5% and 111%	86.7% and 99.3% and 94.8%	99.8% and 104% and 106%	95.4% and 96.4% and 96.5%	69.2% and 93.7% and 84.7%	30.4% and 23.8% and 19.9%	5.25 and 5.19 and 5.24	–	–	–	–	–	–
